# Test results as given in PMC12206033, “Selective inhibition of TRPV3 channel by natural rosmarinic acid and its analogs for alleviation of skin lesions through downregulation of NF-κB pathway” (The Journal of Biological Chemistry, 2025).
# Columns and labels:
# [1] = target: T1, hTRPV3 (Homo sapiens, UniProt Q8NET8); test: single-channel inside-out patch recordings of hTRPV3 in HEK293T cells; format: cell-based; settings: 2-APB 50 μM or Car 300 μM alone, n = 5
# T1 construct: expressed in transfected cells; host or cells: HEK293T
# T1 sequence (Q8NET8 1-790): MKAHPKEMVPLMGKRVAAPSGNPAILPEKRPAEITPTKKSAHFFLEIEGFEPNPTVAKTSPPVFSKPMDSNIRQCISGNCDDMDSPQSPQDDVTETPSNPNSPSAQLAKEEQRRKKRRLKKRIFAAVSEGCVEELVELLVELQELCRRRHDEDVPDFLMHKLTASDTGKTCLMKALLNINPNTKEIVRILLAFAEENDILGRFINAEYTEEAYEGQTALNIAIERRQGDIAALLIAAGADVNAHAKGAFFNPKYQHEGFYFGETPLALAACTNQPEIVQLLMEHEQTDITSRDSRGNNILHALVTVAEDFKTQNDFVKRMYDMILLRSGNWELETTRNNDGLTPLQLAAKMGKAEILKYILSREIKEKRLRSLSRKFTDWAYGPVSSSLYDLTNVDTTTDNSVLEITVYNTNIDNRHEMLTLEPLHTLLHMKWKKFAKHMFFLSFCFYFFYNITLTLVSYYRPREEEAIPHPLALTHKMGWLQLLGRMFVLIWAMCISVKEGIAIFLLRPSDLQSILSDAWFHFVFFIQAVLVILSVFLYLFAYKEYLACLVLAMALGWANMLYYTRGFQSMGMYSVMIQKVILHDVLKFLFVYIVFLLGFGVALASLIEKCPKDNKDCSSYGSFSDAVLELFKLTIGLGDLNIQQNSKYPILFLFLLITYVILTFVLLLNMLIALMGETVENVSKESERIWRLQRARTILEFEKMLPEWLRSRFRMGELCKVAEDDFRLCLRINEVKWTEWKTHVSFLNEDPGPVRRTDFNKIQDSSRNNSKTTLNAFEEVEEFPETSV
# Experimental: HEK293T cell line was obtained from the Cell Resource Center, Peking Union Medical College. HEK293T cells were maintained in Dulbecco’s modified Eagle’s medium (DMEM, Gibco) supplemented with 10% fetal bovine serum at 37 °C with 5% CO2. HEK293T cells were seeded onto glass coverslips 1 day in advance and transiently transfected with […] complementary deoxyribonucleic acids of human TRPV3 (hTRPV3, accession number NM_145068.4), hTRPV1 (accession number NM_080704.3), mTRPV2 (accession number NM_011706.2), hTRPV4 (accession number NM_021625.5), hTRPA1 (accession number NM_007332.3), and hTRPM8 (accession number NM_024080.5) through Lipofectamine 2000 (Invitrogen) following the manufacture’s protocol. The next day, determine the plasmid transfection status by observing green fluorescence based on expression of enhanced GFP as an indicator. […] As for the relative fluorescence intensity, we convert the image to 8 bit grayscale using ImageJ (Https://imagej.net/software/fiji/downloads) and set an appropriate threshold value to reduce background noise and enhance the image contrast.
# (§1) All patch-clamp recordings were conducted 16 to 24 h after transfection using an EPC10 amplifier powered by PatchMaster software (HEKA) (https://www.heka.com/downloads/downloads_main.html#down_patchmaster) at room temperature. The borosilicate glass pipettes were pulled using a DMZ universal electrode puller (Zeitz-Instruments GmbH) to achieve the resistances of three to 5 MΩ (for whole-cell recordings) or five to 9 MΩ (for inside-out patch recordings). Currents were recorded at a potential ramp from −100 mV to +100 mV for 1000 ms with 1000-ms intervals (for whole-cell recordings) or a persistent potential of −60 mV (inside-out patch recordings). Both pipette solution and bath solution contained (in mM): 130 NaCl, 3 Hepes, and 0.2 EDTA (pH = 7.2–7.4). All recording data were analyzed using Igor Pro (Wave-metrics) (https://www.wavemetrics.com/order/order_igordownloads.htm) and Origin 8.6 (Origin Lab) (https://www.originlab.com/doc/zh/Quick-Help/Download-Installer).
# [2] = target: T1, hTRPV3; test: whole-cell patch-clamp of hTRPV3 currents in HEK293T cells activated by 2-APB; format: cell-based; settings: for inhibition at 50 µM: HEK-293T, compound 50 μM, agonist 2-APB 50 μM, Fig. 3I, n = 4-5, read-out: inhibition of hTRPV3 currents; for IC50: evoked by 2-APB 50 μM, outward currents at +80 mV, HEK293T, Fig. 3J, n = 5-7, read-out: IC50, inhibition of whole-cell hTRPV3 currents
# Experimental: (§2) HEK293T cell line was obtained from the Cell Resource Center, Peking Union Medical College. HEK293T cells were maintained in Dulbecco’s modified Eagle’s medium (DMEM, Gibco) supplemented with 10% fetal bovine serum at 37 °C with 5% CO2. HEK293T cells were seeded onto glass coverslips 1 day in advance and transiently transfected with […] complementary deoxyribonucleic acids of human TRPV3 (hTRPV3, accession number NM_145068.4), hTRPV1 (accession number NM_080704.3), mTRPV2 (accession number NM_011706.2), hTRPV4 (accession number NM_021625.5), hTRPA1 (accession number NM_007332.3), and hTRPM8 (accession number NM_024080.5) through Lipofectamine 2000 (Invitrogen) following the manufacture’s protocol. The next day, determine the plasmid transfection status by observing green fluorescence based on expression of enhanced GFP as an indicator. All WT or mutant hTRPV3 complementary deoxyribonucleic acid plasmids were confirmed by DNA sequencing. When conducting experiments on HEK293T cells transfected with G573S point mutant TRPV3 plasmid, we replaced culture medium with or without compounds after 4 h of transfection and then observed green fluorescence of HEK293T cell after 10 h. As for the relative fluorescence intensity, we convert the image to 8 bit grayscale using ImageJ (Https://imagej.net/software/fiji/downloads) and set an appropriate threshold value to reduce background noise and enhance the image contrast.
# as §1
# [3] = tested on: Car-induced ear swelling and dorsal skin inflammation in mice; test: mouse model of ear swelling and dorsal skin inflammation induced by skin sensitizer Car (3%); format: in vivo
# From the text: Adult C57BL/6J mice (aged 6–8 weeks, weighing 20 ± 2 g) were purchased from the Beijing Vital River Laboratory Animal Technology Co. Ltd. TRPV3-KO mice were purchased from Cyagen Biosciences Inc. All mice were housed in plastic cages with natural poplar wood bedding materials, accommodating three to five mice per cage. The housing environment was maintained at a controlled room temperature of (23 ± 2) °C and humidity of (50 ± 5) %, with 12-h light/dark cycle (lights on at 7:00 AM and off at 7:00 PM). Mice had free access to food and water. All animal test protocols were approved by the Institutional Animal Care and Use Committee of Qingdao University Health Science Center and were conducted in accordance with institutional and national guidelines for the use and care of animals in experiments. All mice were anesthetized with isoflurane (1%–1.5%) using an isoflurane gas anesthesia device and were euthanized under anesthesia.
# (§3) Skin sensitizer Car was dissolved in saline solution containing 30% ethanol. The dorsal skin or ear of mice was swabbed with 3% Car for four consecutive days. To investigate the effects of ROSA, it was diluted to concentration of 0.1/1/10 mM with saline and topically applied on the ear and dorsal skin once a day for 4 days. The control group only received swabs with the solvent.
# [4] = tested on: TRPV3, IL-6, TNF-α, and p-P65 protein expressions; test: Western blot of TRPV3 and NF-κB pathway proteins in mouse ear tissues; format: in vivo; settings: mouse ear tissues treated with 3% Car; day 5
# Experimental: as §3
# Skin or ear skin tissues were homogenized in radioimmunoprecipitation assay buffer (Thermo Fisher Scientific) containing protease inhibitors at a ratio of 100:1 per 10 mg tissue and centrifuged at 15,000 rpm for 15 min. The protein concentration was quantified using a bicinchoninic acid kit (Thermo Fisher Scientific), followed by SDS-PAGE for Western blot analysis. Protein transfer was performed at 150 mA for 90 min, and the transferred membranes (Millipore) were incubated with primary antibodies (TRPV3 antibody, 1:1000, TNF-α antibody, 1:1000, IL-6 antibody, 1:2500, P65 antibody, 1:1000 and p-P65 antibody, 1:1000) in 5% skim milk (Becton, Dickinson and Company). […] Images were quantified using the Image Lab software (https://www.bio-rad.com/zh-cn/product/image-lab-software?ID=KRE6P5E8Z).
# [5] = tested on: HEK293T cells expressing hTRPV3; test: Hoechst 33342/propidium iodide double staining cell death assay; format: cell-based
# Experimental: For cell death assay, HEK293T cells transfected with hTRPV3 were seeded in 6-well plates and randomly divided into different groups. TRPV3 and NF-κB inhibitors were added 1 h before the addition of Car. After administration of Car for 1 h, cell death was detected using Hoechst 33342/propidium iodide Double Stain Kit (Solarbio). After staining, cells were resuspended with PBS buffer. Five random view images in each group were taken under a microscope (Eclipse Ti, Nikon) and counted using ImageJ software (National Institutes of Health).
# [6] = CCK-8 cell viability assay; format: cell-based; settings: human, HEK293T cells expressing hTRPV3, Car 300 μM for 1 h, read-out: cell viability rate, Car alone
# Experimental: For cell viability assay, hTRPV3-HEK293T cells were seeded in 96-well plates for 12 to 16 h before exposed to Car in DMEM containing 2% fetal bovine serum for 1 h. TRPV3 and NF-κB inhibitors were added 1 h before the addition of Car. After removing the medium containing chemical compounds, hTRPV3-HEK293T cells were incubated with DMEM containing 10% CCK-8 (TargetMol) for 1 h. Cell viability was then assessed using the Sunrise microplate reader under the light absorbance at 450 nm (TECAN, CH).
# [7] = tested on: HEK293T cells expressing G573S-TRPV3; test: green fluorescence of live HEK293T cells transfected with gain-of-function mutant GFP-TRPV3-G573S; format: cell-based, human; settings: compound 20 μM
# Experimental: as §2, with “All WT or mutant hTRPV3 complementary deoxyribonucleic acid plasmids were confirmed by DNA sequencing.” left out
# [8] = tested on: NF-κB p-P65; settings: no reference given; read-out: IC50 of NF-κB p-P65 inhibitor; cited from earlier work
# [9] = topical JSH-23 20 μM in 100 μl coapplied with Car for consecutive 4 days, mouse dorsal skin
# [10] = inhibitor 20 μM added 1 h before Car 300 μM
Compound,inhibition at 50 µM [2] [%],IC50 [2] [µM],"single-channel open probability, agonist alone [1]",green fluorescence of live cells [7],"cell death ratio [5, 10] [%]",other results
"NCCOB(c1ccccc1)c1ccccc1 [2-APB, 2-aminoethoxydiphenyl borate, reference compound]",,,0.67 ± 0.05,,,
"Cc1ccc(C(C)C)cc1O [Car, carvacrol, reference compound]",,,0.77 ± 0.09,,,"ear skin inflammation, thickness and ear swelling scores, Car alone ([3]; topical Car for consecutive 4 days, WT mice): ear skin inflammation with significantly increased thickness and ear swelling scores; protein expressions of TRPV3, IL-6, TNF-α, and p-P65, Car alone [4]: upregulated; cell death ratio, Car alone ([5]; Car 300 μM for 1 h, vehicle control 8%): 30%; viability at 1 h, 300 μM [6]: 72%"
Cc1ccc(NCCCc2ccccc2)c(N)c1 [JSH-23],,,,robust green fluorescence,17,"dermatitis scores [3, 9]: reduction of dermatitis scores; dorsal skin inflammation [3, 9]: significant alleviation of the dorsal skin inflammation; IC50 [8]: 7.1 µM; cell death ratio ([5]; inhibitor 5 μM added 1 h before Car 300 μM): 21%"
"N.N.N.N.N.N.N.N.N.N.N.N.N.N.[Cl-].[Cl-].[Cl-].[Cl-].[Cl-].[Cl-].[O-2].[O-2].[Ru+3].[Ru+3].[Ru+4] [RR, ruthenium red]",,,,robust green fluorescence,23,

# Second part, led by results:
inhibition at 50 µM [2] [%],IC50 [2] [µM],Compound,"single-channel open probability, agonist alone [1]",green fluorescence of live cells [7],"cell death ratio [5, 10] [%]",other results
~40.1,67.7 ± 22.4,"O=C(/C=C/c1ccc(O)c(O)c1)NCCc1ccc(O)c(O)c1 [CADA, (E)-3-(3,4-dihydroxyphenyl)-N-(2-(3,4-dihydroxyphenyl)ethyl)-2-propenamide]",,,,
9 ± 5.2,157 ± 34.5,"COC(=O)[C@@H](Cc1ccc(O)c(O)c1)OC(=O)/C=C/c1ccc(O)c(O)c1 [MROSA, methyl rosmarinate]",,,,
